The values that follow come from paper PMC3177598 (Bioorganic & medicinal chemistry letters, 2008).

In one assay the test system is mAChRs (M1, M3 and M5). The settings on record: in our hands; ref [8]; cited from earlier work.
The target of another assay is D2 (Homo sapiens, UniProt P14416). The experiment in a line: D2 antagonist activity / D2 inhibition. It counts as cell-based.
Sequence of D2 (P14416 whole entry): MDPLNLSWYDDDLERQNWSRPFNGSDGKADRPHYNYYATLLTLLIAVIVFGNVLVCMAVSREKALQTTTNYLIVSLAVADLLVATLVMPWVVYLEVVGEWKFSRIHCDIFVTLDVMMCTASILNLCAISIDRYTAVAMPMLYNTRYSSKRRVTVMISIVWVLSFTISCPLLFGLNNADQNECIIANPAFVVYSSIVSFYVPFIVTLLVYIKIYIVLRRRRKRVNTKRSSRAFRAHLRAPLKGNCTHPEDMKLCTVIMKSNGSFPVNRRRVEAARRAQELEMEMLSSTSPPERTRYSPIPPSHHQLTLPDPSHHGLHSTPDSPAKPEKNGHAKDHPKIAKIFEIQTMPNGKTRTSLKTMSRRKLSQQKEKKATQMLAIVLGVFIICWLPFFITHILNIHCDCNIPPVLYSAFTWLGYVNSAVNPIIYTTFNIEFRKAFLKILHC

As to `CC[C@@H]1SC2(CCN(C)CC2)NC1=O` [AF267B], in the assay with mAChRs (M1, M3 and M5), the “mAChR subtypes activated (in words)” value was “activates M1, M3 and M5, and is M3 preferring”. For the molecule `Cc1ccccc1CN1CCC(N2CCC(n3c(=O)[nH]c4ccc(F)cc43)CC2)CC1` [Compound 20c], the “D2 inhibition (in words)” value at D2 was “no significant D2 inhibition”. Consider `Cc1ccccc1CN1CCC(N2CCC(n3c(=O)[nH]c4cc(F)ccc43)CC2)CC1` [Compound 20b], for which the “D2 inhibition (in words)” value at D2 is “no significant D2 inhibition”.
